According to patent US11198741B2, “Medicines for topic use based on sulfated hyaluronic acid as activating or inhibiting agent of the cytokine activity” (Fidia Farmaceutici S.p.A., priority 2009, dated 2021):
Like-named read-outs stand apart in the source and are kept apart here.

What was measured:
[1] = test system: Vesicular stomatitis virus: VSV; format: cell-based
IL-10 = assay: Gene expression of IL-10 in human synoviocytes (PCR Real Time); format: cell-based; settings: 3 days of treatment, FIG. 1: HAS1 0.5 mg/ml, HAS3 0.1 mg/ml, vs control treated with non-sulfated HA 200 KD
Experimental: (§1) Human synoviocytes previously expanded in vitro and maintained in a culture at 37° C. with a medium of DMEM containing 10% of FCS, were seeded at a concentration of 20,000 cells per well (synoviocytes are cells capable of producing various types of cytokines, and are therefore normally used for this type of experimental test). […] After 3 days of treatment, the PCR Real Time was effected to evaluate the gene expression of IL-10 and IL-12: the cell RNA was extracted using the “Trizol” method, following the indications of the supplier (TRIZOL reagent, LIFE Technologies, GIBCO BRL). In short, the cells were lysed by the addition of 1.0 ml of Trizol and the total RNA was quantified by measuring its absorbance at 260 nm. The appropriate primers were selected for each gene to be amplified, using the software Primer3 (Roche Molecular Diagnostics, Pleasanton, Calif., USA). The gene expression was evaluated by means of PCR Real Time effected with a Rotor-gene TM5500 (Corbett research, Sydney, Australia). The PCR reactions were effected using primers at […] and SYBR Green (Invitroge, Carlsbad, Calif., USA) at 40 cycles of 15 s at 95° C., and 1 min. at 60° C. The value of “Fluorescence thresholds (Ct)” was automatically determined by the software, evaluating an amplification coefficient for the genes studied between 92 and 110%. […]

IL-12 [2] = assay: Gene expression of IL-12 in human synoviocytes (PCR Real Time); format: cell-based; settings: 3 days of treatment, FIG. 2: 0.5 mg/ml, vs control treated with non-sulfated HA 200 KD
Experimental: as §1

TNF receptor = assay: Inhibition of the binding of 125I-TNF to its receptor in U937 cells (Radioligand Binding); set-up: species or system human; settings: 125I-TNF 0.028 nM, sample 1 mg/ml, 4° C. 3 hours, medium and low MW
Excerpt: These experiments were effected to evaluate the effectiveness of the samples tested (prepared according to Examples 1-4) on the capacity of inhibiting the binding of TNF to its receptor expressed by cells of the I.S. normally used in vitro for this type of experiment, carried out with iodinated cytokine components for an evaluation in Radioligand Binding assays. The experimental procedure was effected as described in Baglioni C. et al., J Biol Chem, 1985, 260:13395-13397. In short, the line of human histiocytes of the lymphoma U937 was used, with characteristics of monocytes sensitive to the cytotoxic activity of TNF, expressing its relative receptor. […] At the end of the incubation, the cells were centrifuged with dibutylphthalate/dinonylphthalate 2/1 and the pellet obtained was counted in a γ-counter.

[3] = test system: Herpes Simplex Virus-1 (HSV-1: KOS, F and McIntyre strain); assay: Inhibition of viral cytopathogenicity in E6SM fibroblast cells, HSV-1; format: cell-based; settings: 2nd day of incubation, numbers only in FIG. 10
[4] = test system: Herpes Simplex Virus-2 (HSV-2: G, 196 and Lyons strain); assay: Inhibition of viral cytopathogenicity in E6SM fibroblast cells, HSV-2; format: cell-based; settings: 2nd day of incubation, numbers only in FIG. 10
[5] = test system: Cytomegalovirus (CMV: AD-169 and Davis strain); assay: Inhibition of Cytomegalovirus plaque formation in HEL cells; format: cell-based; settings: numbers only in FIG. 11
Experimental: The activity of the samples tested was determined by evaluating the inhibition of the cytopathogenicity determined by Cytomegalovirus (CMV: AD-169 and Davis strain) using the previous protocol. The antiviral activity was tested vs HEL cells (pulmonary embryonic cells) and was expressed as the concentration required for inhibiting the number of plaques formed by the above virus by 50%.

IL-2 = assay: Protein synthesis of IL-2 in human PBMC (SearchLight array); settings: not stimulated or stimulated with LPS or PHA (10 μg/ml), 24 hours, FIG. 6: HAS1 0.1 mg/ml, HAS3 1 mg/ml, vs HA
Experimental: (§2) For these experimentations, mononucleate cells of human peripheral blood (PBMC) were adopted, deriving from various donors for evaluating the effect of HAS on the production of the cytokines listed above, using:
(§3) The separation of the PBMC (Bøyum A., Scand J Clin Lab Invest 21 Suppl, 1968, 97:77-89) was effected using the product Ficoll-Paque PLUS (GE Healthcare) and following the protocol indicated by the supplier. At day zero 100,000 cells were plated per well (using plates with 96 wells) in 200 μl of medium RPMI 1640, to which 10% of fetal bovine serum, HEPES 10 mM, Glutamine 2 mM, 1% Penicillin-Streptomycin 100 U/ml, had been added. […] The cells were treated separately with the three compounds at a concentration of 0.1 mg/ml or 1 mg/ml. After 24 hours of incubation at 37° C. (5% CO2), 100 μl of supernatant were taken from each well in order to analyze the production of IL-2, IL-7, IL-10 and IL-12.
(§4) The quantification of the inflammation mediators was effected by means of the SearchLight® technology, using a Custom Human 9-flex Array plate following the protocol indicated by the supplier in the technical card.

IL-7 = assay: Protein synthesis of IL-7 in human PBMC (SearchLight array); settings: not stimulated or stimulated with LPS or PHA (10 μg/ml), 24 hours, FIG. 7: 1 mg/ml, vs HA
Experimental: as §2, §3, §4

IL-12 [6] = assay: Protein synthesis of IL-12 in human PBMC (SearchLight array); settings: not stimulated or stimulated with LPS or PHA (10 μg/ml), 24 hours, FIG. 8: 1 mg/ml, vs HA
Experimental: as §2, §3, §4

fibrin clot = molecular target: T1, fibrin clot (Homo sapiens, UniProt P02671+P02675+P02679); assay: In vitro fibrinolytic activity: dissolution of fibrin clot in coagulated plasma (absorbance at 405 nm); format: biochemical; settings: 37° C.
T1 sequence (P02671 20-644 isoform P02671-2 limits assumed): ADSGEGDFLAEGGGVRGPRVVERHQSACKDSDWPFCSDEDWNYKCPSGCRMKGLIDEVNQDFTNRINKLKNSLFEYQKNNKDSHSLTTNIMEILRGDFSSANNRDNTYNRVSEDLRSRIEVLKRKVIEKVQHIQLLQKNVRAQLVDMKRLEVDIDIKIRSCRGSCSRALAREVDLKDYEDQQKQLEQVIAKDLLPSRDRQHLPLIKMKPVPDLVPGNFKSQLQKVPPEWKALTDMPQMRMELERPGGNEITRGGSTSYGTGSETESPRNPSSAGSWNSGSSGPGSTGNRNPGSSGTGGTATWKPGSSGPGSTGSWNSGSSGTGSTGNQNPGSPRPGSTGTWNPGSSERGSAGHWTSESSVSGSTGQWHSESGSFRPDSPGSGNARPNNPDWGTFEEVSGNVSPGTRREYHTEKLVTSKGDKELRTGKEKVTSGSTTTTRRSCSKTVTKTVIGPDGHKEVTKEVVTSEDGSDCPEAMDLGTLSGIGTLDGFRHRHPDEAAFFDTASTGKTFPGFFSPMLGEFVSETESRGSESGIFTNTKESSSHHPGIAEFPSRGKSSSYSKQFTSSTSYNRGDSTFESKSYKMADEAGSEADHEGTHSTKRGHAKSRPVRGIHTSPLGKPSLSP
T1 sequence (P02675 45-491 limits assumed): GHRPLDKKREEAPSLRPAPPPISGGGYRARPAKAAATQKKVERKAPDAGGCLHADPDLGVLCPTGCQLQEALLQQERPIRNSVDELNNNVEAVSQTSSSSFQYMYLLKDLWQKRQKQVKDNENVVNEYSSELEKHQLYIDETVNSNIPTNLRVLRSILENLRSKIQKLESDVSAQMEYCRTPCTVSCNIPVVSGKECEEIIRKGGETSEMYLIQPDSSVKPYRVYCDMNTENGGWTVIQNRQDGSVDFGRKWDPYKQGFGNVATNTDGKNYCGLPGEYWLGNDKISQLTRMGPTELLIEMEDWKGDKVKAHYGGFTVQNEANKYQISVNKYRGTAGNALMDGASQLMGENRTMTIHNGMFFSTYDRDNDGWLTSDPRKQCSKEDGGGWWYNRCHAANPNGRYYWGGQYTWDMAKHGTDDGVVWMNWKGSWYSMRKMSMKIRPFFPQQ
T1 sequence (P02679 27-437 isoform P02679-2 limits assumed): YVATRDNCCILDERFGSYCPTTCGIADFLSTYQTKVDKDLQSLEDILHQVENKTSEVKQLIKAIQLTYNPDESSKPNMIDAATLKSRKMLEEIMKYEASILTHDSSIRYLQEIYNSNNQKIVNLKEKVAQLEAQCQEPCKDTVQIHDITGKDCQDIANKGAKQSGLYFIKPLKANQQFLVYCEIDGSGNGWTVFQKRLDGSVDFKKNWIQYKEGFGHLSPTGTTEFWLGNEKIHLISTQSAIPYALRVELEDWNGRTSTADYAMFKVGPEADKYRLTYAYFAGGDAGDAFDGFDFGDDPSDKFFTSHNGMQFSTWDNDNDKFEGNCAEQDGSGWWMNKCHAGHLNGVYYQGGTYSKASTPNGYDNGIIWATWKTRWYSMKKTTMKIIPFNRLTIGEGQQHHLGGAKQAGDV
Experimental: The evaluation of the fibrinolytic properties of the products subjected to the test was compared with the acknowledged fibrinolytic activity of the plasmin. In particular, the dissolution rate of the fibrin network and formation of soluble products of the fibrin degradation (FDP), was evaluated.
In order to test the fibrinolytic effectiveness of the products subjected to testing, the blood samples were distributed in various test-tubes in which the clot formation was induced.
The formation of FDP was then evaluated after the addition of:
The freshly removed blood samples were distributed in various test-tubes containing sodium citrate in a ratio of 9:1. The test-tubes were immediately centrifuged at 3,000 rpm for 5 minutes. The plasma obtained was transferred to a new test-tube and immediately used for effecting the FDP evaluation.
Thrombin (300 mU/ml), preheated to 37° C. was added to the plasma samples, as activator of the fibrinogen in inducing the formation of the clot.
The following were added to the different cuvettes containing the fibrin clot:
a plasmin solution 0.5 mU, 5 mU, 50 mU, 500 mU and 1 U
solutions of HAS3 at concentrations of 25 mg/ml, 50 mg/ml, 100 mg/ml, 150 mg/ml and 200 mg/ml.
The absorbance variation at 405 nm for 60 sec. was evaluated spectrophotometrically for each cuvette. The reaction was left to proceed until the complete dissolution of the clot.
Coagulated plasma, plasmin solution and a solution of HAS3 200 KD and HAS3 20 KD were mixed in a ratio of 1:1 v/v and maintained at an operating temperature of 37° C.

Nc1nc2c(ncn2COCCO)c(=O)[nH]1 [acyclovir, Acyclovir, reference compound]
antiviral activity (inhibition of the cytopathogenicity of the virus) vs VSV ([1]; E6SM cells, 2nd day of incubation, numbers only in FIG. 10): inactive

sulfated hyaluronic acid degree 1 [HAS1]
gene expression of the cytokine IL-10 (IL-10): significant increase | gene expression of IL-12 (synthesis of its mRNA) (IL-12 [2]): halving the synthesis of its mRNA | inhibition of the binding of TNF to its receptor (TNF receptor): 100% | antiviral activity (inhibition of the cytopathogenicity of the virus) vs HSV-1 [3]: powerful antiviral action | antiviral activity (inhibition of the cytopathogenicity of the virus) vs HSV-2 [4]: powerful antiviral action | antiviral activity (inhibition of the cytopathogenicity of the virus) vs VSV [1]: very powerful antiviral activity | antiviral activity vs Cytomegalovirus (inhibition of the number of plaques) [5]: clear and significant positive result | synthesis of IL-2 (IL-2): significantly reducing | synthesis of IL-7 (IL-7): significantly reducing | synthesis of IL-12 (IL-12 [6]): significantly reducing

B1: PLASMIN: enzyme of the group of hydrolases degrading fibrin; control treatment of acknowledged fibrinolytic activity (protein, UniProt P00747 20-580; P00747 581-810, looked up)
Plasmin heavy chain A: EPLDDYVNTQGASLFSVTKKQLGAGSIEECAAKCEEDEEFTCRAFQYHSKEQQCVIMAENRKSSIIIRMRDVVLFEKKVYLSECKTGNGKNYRGTMSKTKNGITCQKWSSTSPHRPRFSPATHPSEGLEENYCRNPDNDPQGPWCYTTDPEKRYDYCDILECEEECMHCSGENYDGKISKTMSGLECQAWDSQSPHAHGYIPSKFPNKNLKKNYCRNPDRELRPWCFTTDPNKRWELCDIPRCTTPPPSSGPTYQCLKGTGENYRGNVAVTVSGHTCQHWSAQTPHTHNRTPENFPCKNLDENYCRNPDGKRAPWCHTTNSQVRWEYCKIPSCDSSPVSTEQLAPTAPPELTPVVQDCYHGDGQSYRGTSSTTTTGKKCQSWSSMTPHRHQKTPENYPNAGLTMNYCRNPDADKGPWCFTTDPSVRWEYCNLKKCSGTEASVVAPPPVVLLPDVETPSEEDCMFGNGKGYRGKRATTVTGTPCQDWAAQEPHRHSIFTPETNPRAGLEKNYCRNPDGDVGGPWCYTTNPRKLYDYCDVPQCAAPSFDCGKPQVEPKKCPGR
Plasmin light chain B: VVGGCVAHPHSWPWQVSLRTRFGMHFCGGTLISPEWVLTAAHCLEKSPRPSSYKVILGAHQEVNLEPHVQEIEVSRLFLEPTRKDIALLKLSSPAVITDKVIPACLPSPNYVVADRTECFITGWGETQGTFGAGLLKEAQLPVIENKVCNRYEFLNGRVQSTELCAGHLAGGTDSCQGDSGGPLVCFEKDKYILQGVTSWGLGCARPNKPGVYVRVSRFVTWIEGVMRNN
modifications: Plasmin
fibrinolytic activity (mAbs/min) (fibrin clot; plasmin 0.5 mU): 1 mAbs/min | fibrinolytic activity (mAbs/min) (fibrin clot; plasmin 1 U): 190 mAbs/min | fibrinolytic activity (mAbs/min) (fibrin clot; plasmin 5 mU): 68 mAbs/min | fibrinolytic activity (mAbs/min) (fibrin clot; plasmin 50 mU): 126 mAbs/min | fibrinolytic activity (mAbs/min) (fibrin clot; plasmin 500 mU): 178 mAbs/min
